Data taken from PMC6804295, “Design, Synthesis, and Biological Evaluation of Novel Thienopyrimidine Derivatives as PI3Kα Inhibitors” (Molecules, 2019).

How the values were obtained:
[1] = molecular target: PI3Kα (Homo sapiens, UniProt P42336); test: PI3Kα Kinase-Glo Luminescent Kinase Assay; format: biochemical; conditions: 1 µM ATP, 60 min
[2] = test system: PC-3 (human prostate cancer); test: MTT cytotoxicity assay, PC-3 cells; format: cell-based; conditions: >50 = no inhibitory effect at 50 μM
Procedure: (§1) The cancer cell lines were cultured in minimum essential medium (MEM) supplement with 10% fetal bovine serum (FBS). Approximately, 4 × 10 ^3 cells, suspended in MEM medium, were plated onto each well of a 96-well plate and incubated in 5% CO2 at 37 °C for 24 h. The test compounds at the indicated final concentrations were added to the culture medium, and cell cultures continued for 72 h. Fresh MTT was added to each well at a terminal concentration of 5 µg/mL and incubated with cells at 37 °C for 4 h. The formazan crystals were dissolved in 100 µL of DMSO in each well, and the absorbency at 492 nm (for absorbance of MTT formazan) and 630 nm (for the reference wavelength) was measured with an enzyme linked immunosorbent assay (ELISA) reader (MR-96A Mindray Elisa Microplate Reader, Guangzhou, China). All compounds were tested three times in each of the cell lines. The results expressed as inhibition rates or IC50 was the averages of […] and calculated using the Bacus Laboratories Inc. Slide Scanner (Bliss) software (the Bacus Laboratories Inc. Slide Scanner (BLISS) system, Lombard, IL, USA).

[3] = test system: HepG2 (human hepatoma); test: MTT cytotoxicity assay, HepG2 cells; format: cell-based; conditions: >50 = no inhibitory effect at 50 μM
Procedure: as §1

[4] = test system: MCF-7 (human breast cancer); test: MTT cytotoxicity assay, MCF-7 cells; format: cell-based; conditions: >50 = no inhibitory effect at 50 μM
Procedure: as §1

[5] = test system: A549 (human lung cancer); test: MTT cytotoxicity assay, A549 cells; format: cell-based; conditions: 72 h, >50 = no inhibitory effect at 50 μM
Procedure: as §1

[6] = molecular target: mTOR (Homo sapiens, UniProt P42345); test: mTOR Kinase-Glo Luminescent Kinase Assay; format: biochemical; conditions: 10 µM ATP, 60 min

Sequence of PI3Kα (P42336 whole entry): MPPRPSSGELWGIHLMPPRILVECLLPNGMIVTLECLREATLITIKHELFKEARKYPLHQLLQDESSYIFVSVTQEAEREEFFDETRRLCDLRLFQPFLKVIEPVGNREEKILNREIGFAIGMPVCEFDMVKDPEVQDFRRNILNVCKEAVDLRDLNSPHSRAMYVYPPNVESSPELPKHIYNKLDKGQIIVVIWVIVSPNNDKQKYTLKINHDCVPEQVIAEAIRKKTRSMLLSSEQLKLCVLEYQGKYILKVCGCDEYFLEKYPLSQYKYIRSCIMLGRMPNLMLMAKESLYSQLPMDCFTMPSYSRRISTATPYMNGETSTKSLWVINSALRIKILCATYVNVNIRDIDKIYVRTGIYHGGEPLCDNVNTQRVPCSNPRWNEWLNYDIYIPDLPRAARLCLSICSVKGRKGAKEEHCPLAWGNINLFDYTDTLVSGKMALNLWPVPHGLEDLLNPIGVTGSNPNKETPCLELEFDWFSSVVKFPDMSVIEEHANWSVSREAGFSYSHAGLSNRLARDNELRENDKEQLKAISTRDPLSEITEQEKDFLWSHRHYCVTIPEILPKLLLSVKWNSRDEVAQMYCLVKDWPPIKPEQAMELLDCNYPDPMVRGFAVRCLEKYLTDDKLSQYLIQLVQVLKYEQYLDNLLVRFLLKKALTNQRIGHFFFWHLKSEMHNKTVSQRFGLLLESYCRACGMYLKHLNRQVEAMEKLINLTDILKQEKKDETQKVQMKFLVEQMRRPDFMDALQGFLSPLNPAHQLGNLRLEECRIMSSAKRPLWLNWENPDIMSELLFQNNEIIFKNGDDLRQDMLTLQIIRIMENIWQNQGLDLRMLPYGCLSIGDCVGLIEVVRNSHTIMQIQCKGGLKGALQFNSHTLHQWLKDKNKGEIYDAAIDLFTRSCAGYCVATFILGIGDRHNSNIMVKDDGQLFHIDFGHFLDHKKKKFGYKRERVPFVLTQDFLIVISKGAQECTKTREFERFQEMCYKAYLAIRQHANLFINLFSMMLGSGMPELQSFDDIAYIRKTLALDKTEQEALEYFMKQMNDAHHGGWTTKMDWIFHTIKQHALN
Sequence of PI3Kα (P27986 whole entry partner): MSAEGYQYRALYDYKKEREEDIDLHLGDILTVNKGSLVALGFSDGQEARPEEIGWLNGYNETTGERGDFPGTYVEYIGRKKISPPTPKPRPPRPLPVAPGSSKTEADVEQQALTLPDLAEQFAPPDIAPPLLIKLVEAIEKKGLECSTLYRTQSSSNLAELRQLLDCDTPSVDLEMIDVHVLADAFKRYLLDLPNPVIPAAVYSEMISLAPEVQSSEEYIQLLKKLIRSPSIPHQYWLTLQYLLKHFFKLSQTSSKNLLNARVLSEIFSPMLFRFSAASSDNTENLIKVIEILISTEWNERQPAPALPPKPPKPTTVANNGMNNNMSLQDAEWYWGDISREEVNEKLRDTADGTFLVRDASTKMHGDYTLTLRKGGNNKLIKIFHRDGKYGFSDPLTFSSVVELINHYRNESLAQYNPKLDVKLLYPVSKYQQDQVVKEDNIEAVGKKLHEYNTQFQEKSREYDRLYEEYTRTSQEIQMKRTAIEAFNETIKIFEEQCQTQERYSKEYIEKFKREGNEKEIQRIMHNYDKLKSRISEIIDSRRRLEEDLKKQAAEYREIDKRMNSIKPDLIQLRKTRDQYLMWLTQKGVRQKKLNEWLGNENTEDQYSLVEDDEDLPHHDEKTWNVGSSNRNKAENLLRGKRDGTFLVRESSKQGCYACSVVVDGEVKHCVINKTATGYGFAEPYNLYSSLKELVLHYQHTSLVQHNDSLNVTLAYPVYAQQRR

SMILES | IC50 [1] [µM] | IC50 ([2]; 72 h) [µM] | IC50 ([2]; Homo sapiens, PC-3, 72 h) [µM] | IC50 ([3]; 72 h) [µM] | IC50 ([3]; Homo sapiens, HepG2, 72 h) [µM] | IC50 ([4]; 72 h) [µM] | IC50 ([4]; Homo sapiens, MCF7, 72 h) [µM] | IC50 [5] [µM] | IC50 [6] [µM] | melting point [°C]
c1ccc(C2=NN(c3nc(N4CCOCC4)c4ccsc4n3)[C@@H](c3ccccc3)C2)cc1 (stereo in doubt) [Compound 9a] | 9.47 ± 0.63 | 12.3 ± 0.96 | 14.7 ± 1.32 | 9.8 ± 0.93 | 12.3 ± 0.96 | 14.7 ± 1.32 | 9.8 ± 0.93 | 11.3 ± 1.19 | 39.9 ± 7.6 | 202 to 205
c1ccc(C2=NN(c3nc(N4CCOCC4)c4sccc4n3)[C@@H](c3ccccc3)C2)cc1 (stereo in doubt) [Compound 15a] | 25.7 ± 2.33 | – | 15.5 ± 1.21 | – | 13.1 ± 1.48 | – | 17 ± 1.68 | 16.9 ± 1.61 | > 50 | 131.2 to 132.5
Fc1ccc(C2=NN(c3nc(N4CCOCC4)c4ccsc4n3)C(c3ccc(F)cc3)C2)cc1 (stereo not shown) [Compound 9c, 4-(2-(3,5-bis(4-fluorophenyl)-4,5-dihydro-1H-pyrazol-1-yl)thieno[2,3-d]pyrimidin-4-yl)Morpholine] | – | – | 18.2 ± 1.55 | – | 17.4 ± 0.98 | – | 22.37 ± 0.17 | 24.23 ± 0.15 | – | 225 to 227
Fc1ccc(C2=NN(c3nc(N4CCOCC4)c4sccc4n3)C(c3ccc(F)cc3)C2)cc1 (stereo not shown) [Compound 15c, 4-(2-(3,5-bis(4-fluorophenyl)-4,5-dihydro-1H-pyrazol-1-yl)thieno[3,2-d]pyrimidin-4-yl)Morpholine] | – | – | 25.3 ± 2.39 | – | 18.9 ± 1.86 | – | 37.1 ± 2.99 | 39 ± 3.32 | – | 254.7 to 255.4
COc1ccc(C2CC(c3ccc(Cl)c(Cl)c3)=NN2c2nc(N3CCOCC3)c3c4c(sc3n2)CCCC4)cc1 (stereo not shown) [Compound 21a, 4-(2-(3-(3,4-dichlorophenyl)-5-(4-methoxyphenyl)-4,5-dihydro-1H-pyrazol-1-yl)-5,6,7,8-tetrahydrobenzo[4,5]thieno[2,3-d]pyrimidin-4-yl)morpholine] | – | – | 31.8 ± 0.95 | – | 32.4 ± 1.84 | – | – | 27.68 ± 0.1 | – | 252 to 253
Cc1ccc(C2CC(c3ccc(Br)cc3)=NN2c2nc(N3CCOCC3)c3c4c(sc3n2)CCCC4)cc1 (stereo not shown) [Compound 21b, 4-(2-(3-(4-bromophenyl)-5-(p-tolyl)-4,5-dihydro-1H-pyrazol-1-yl)-5,6,7,8-tetrahdrobenzo[4,5]thieno[2,3-d]pyrimidin-4-yl)morpholine] | – | – | 20.6 ± 0.63 | – | 12.4 ± 0.96 | – | 15.3 ± 0.83 | 11.59 ± 0.11 | – | 243 to 244
c1ccc(C2=NN(c3nc(N4CCOCC4)c4c5c(sc4n3)CCCC5)C(c3ccccc3)C2)cc1 (stereo not shown) [Compound 21c, 4-(2-(3,5-diphenyl-4,5-dihydro-1H-pyrazol-1-yl)-5,6,7,8-tetrahydrobenzo[4,5]thiophene[2,3-d]pyramidin-4-yl)morpholine] | – | – | > 50 | – | > 50 | – | > 50 | 42 ± 1.49 | – | 212 to 213
COc1ccc(C2CC(c3ccc(F)cc3)=NN2c2nc(N3CCOCC3)c3c4c(sc3n2)CCCC4)cc1 (stereo not shown) [Compound 21d, 4-(2-(3-(4-fluorophenyl)-5-(4-methoxyphenyl)-4,5-dihydro-1H-pyrazol-1-yl)-5,6,7,8-tetrahydrobenzo[4,5]thieno[2,3-d]pyrimidin-4-yl)morpholine] | – | – | 25.3 ± 0.75 | – | 23.7 ± 0.11 | – | 29.5 ± 1.87 | 17.8 ± 1.1 | – | 189 to 193
Fc1ccc(C2CC(c3ccc(Br)cc3)=NN2c2nc(N3CCOCC3)c3c4c(sc3n2)CCCC4)cc1 (stereo not shown) [Compound 21e, 4-(2-(3-(4-bromophenyl)-5-(4-fluorophenyl)-4,5-dihydro-1H-pyrazol-1-yl)-5,6,7,8-tetrahydrobenzo[4,5]thieno[2,3-d]pyrimidin-4-yl)morpholine] | – | – | > 50 | – | 38.7 ± 1.72 | – | > 50 | > 50 | – | 272 to 273
Brc1ccc(C2=NN(c3nc(N4CCOCC4)c4c5c(sc4n3)CCCC5)C(c3ccccc3)C2)cc1 (stereo not shown) [Compound 21f, 4-(2-(3-(4-bromophenyl)-5-phenyl-4,5-dihydro-1H-pyrazol-1-yl)-5,6,7,8-tetrahydrobenzo[4,5]thieno[2,3-d]pyrimidin-4-yl)morpholine] | – | – | > 50 | – | > 50 | – | > 50 | > 50 | – | 257 to 259
Clc1ccc(C2=NN(c3nc(N4CCOCC4)c4c5c(sc4n3)CCCC5)C(c3ccc(Br)cc3)C2)cc1Cl (stereo not shown) [Compound 21g, 4-(2-(5-(4-bromophenyl)-3-(3,4-dichlorophenyl)-4,5-dihydro-1H-pyrazol-1-yl)-5,6,7,8-tetrahydrobenzo[4,5]thieno[2,3-d]pyrimidin-4-yl)morpholine] | – | – | > 50 | – | > 50 | – | > 50 | > 50 | – | 231 to 234
Clc1ccc(C2=NN(c3nc(N4CCOCC4)c4c5c(sc4n3)CCCC5)C(c3ccccc3)C2)cc1Cl (stereo not shown) [Compound 21h, 4-(2-(3-(3,4-dichlorophenyl)-5-phenyl-4,5-dihydro-1H-pyrazol-1-yl)-5,6,7,8-tetrahydrobenzo[4,5]thieno[2,3-d]pyrimidin-4-yl)morpholine] | – | – | > 50 | – | > 50 | – | > 50 | 23.5 ± 0.82 | – | 293 to 294
CS(=O)(=O)N1CCN(Cc2cc3nc(-c4cccc5[nH]ncc45)nc(N4CCOCC4)c3s2)CC1 [GDC-0941, reference compound] | – | – | 4.35 ± 0.33 | – | 0.07 ± 0.03 | – | 0.2 ± 0.08 | 6.99 ± 0.21 | – | –
